From patent US20230212143A9, “PRMT5 INHIBITOR COMPOUNDS” (University of Florida Research Foundation, Incorporated, priority 2019, published 2023)

Legend:
[1] = molecular target: T1, PRMT5:MEP50 (Homo sapiens, UniProt O14744); test: MTase-Glo enzymatic inhibition assay; assay type: biochemical; details: 100 nM PRMT5:MEP50, 10 μM SAM, 2 μM histone H4 (1-21)
T1 construct: made in house; host or cells: Sf9 insect cells (Bac-to-Bac baculovirus system)
Excerpt: (§1) Protein expression and purification. […] Enzymatic inhibition assay. […] Cancer cell lines. […] Cell proliferation assay. […] Western blot.

[2] = molecular target: T2, PRMT5 (Homo sapiens, UniProt O14744); test: Cellular Thermal Shift Assay; assay type: cell-based; parameters: endogenous in cells; host or cells: MDA-MB-231; details: MDA-MB-231 triple negative breast cancer cells
[3] = molecular target: T2, PRMT5; test: AlphaLISA enzymatic inhibition assay; assay type: biochemical; parameters: made in house; host or cells: Sf9 insect cells (Bac-to-Bac baculovirus system)
Excerpt: as §1

T1 sequence (O14744 whole entry): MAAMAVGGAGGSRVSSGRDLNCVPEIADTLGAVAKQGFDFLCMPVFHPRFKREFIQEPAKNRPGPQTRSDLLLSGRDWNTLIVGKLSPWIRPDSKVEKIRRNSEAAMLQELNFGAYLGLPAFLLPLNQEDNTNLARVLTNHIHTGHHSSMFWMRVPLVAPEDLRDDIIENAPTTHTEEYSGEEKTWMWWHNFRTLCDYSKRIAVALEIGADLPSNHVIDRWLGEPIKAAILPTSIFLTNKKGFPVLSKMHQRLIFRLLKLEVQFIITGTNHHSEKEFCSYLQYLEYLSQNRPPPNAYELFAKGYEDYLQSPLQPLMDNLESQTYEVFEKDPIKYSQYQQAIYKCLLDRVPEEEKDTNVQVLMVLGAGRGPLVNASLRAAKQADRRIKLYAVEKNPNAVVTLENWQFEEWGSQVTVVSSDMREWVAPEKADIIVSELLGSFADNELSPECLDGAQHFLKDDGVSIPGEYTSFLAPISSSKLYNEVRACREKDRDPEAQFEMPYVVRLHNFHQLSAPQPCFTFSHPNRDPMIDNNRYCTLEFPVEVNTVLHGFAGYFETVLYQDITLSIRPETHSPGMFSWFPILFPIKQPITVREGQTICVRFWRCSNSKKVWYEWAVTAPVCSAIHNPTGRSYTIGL
T1 sequence (Q9BQA1 whole entry partner): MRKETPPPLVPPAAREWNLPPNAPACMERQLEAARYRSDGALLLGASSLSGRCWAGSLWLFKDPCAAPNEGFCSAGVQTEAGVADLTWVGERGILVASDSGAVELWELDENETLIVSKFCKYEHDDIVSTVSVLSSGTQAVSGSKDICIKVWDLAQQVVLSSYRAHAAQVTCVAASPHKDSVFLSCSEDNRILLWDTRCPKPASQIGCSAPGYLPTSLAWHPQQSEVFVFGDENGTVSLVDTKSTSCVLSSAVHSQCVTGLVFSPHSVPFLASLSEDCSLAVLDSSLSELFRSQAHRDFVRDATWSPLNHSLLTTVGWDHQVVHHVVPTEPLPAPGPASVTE
T2 sequence (O14744 whole entry): as the sequence (O14744 whole entry) above
T2 sequence (Q9BQA1 whole entry partner): as the sequence (Q9BQA1 whole entry partner) above

Compound | IC50 ([1]; 11-series) [nM] | IC50 ([1]; 15-series) [nM] | also measured
CCn1c2c(c3cc(C(=O)NCc4ccc5ccc(N)nc5c4)ccc31)CCCC2 [Compound 11-1F] | 1340 |  | 
Nc1ccc2ccc(CNC(=O)c3ccc4c(c3)c3c(n4CCO)CCCC3)cc2n1 [Compound 11-2F] | 883 |  | 
CC(=O)N1CCC(Nc2cc(C(=O)NCc3ccc4c(N)nc(N)nc4c3)ncn2)CC1 [Compound 15-2F] |  | 152 | 
CC(=O)N1CCC(Nc2cc(C(=O)NCc3ccc4ccc(N)nc4c3)ncn2)CC1 [Compound 15-1F] |  | 218 | 
CCn1c2c(c3cc(C(=O)NCc4ccc5c(N)nc(N)nc5c4)ccc31)CCCC2 [Compound 11-9F] |  |  | PRMT5 melting temperature increase [2]: 1.5 degree Celsius
CCn1c2ccccc2c2cc(CNCc3ccccn3)ccc21 [CMP5] |  |  | enzymatic inhibition activity [3]: weak
